In publication PMC8037406, “Symbiotic NCR Peptide Fragments Affect the Viability, Morphology and Biofilm Formation of Candida Species” (International Journal of Molecular Sciences, 2021):
Values after ≈ are worked out from the molar mass of the structure shown. Where two headings read alike, the source gives them in different places.

Columns and labels:
Candida glabrata CBS 138 = experiment: microbe, parasite or virus in culture; assay type: cell-based; settings: micro-dilution, YNB medium, 4 × 10^4 cell/mL, 48 h, 30 °C, OD 620 nm, MIC = growth inhibition ≥90%, peptides 25 to 1.56 µM, fluconazole 200 to 0.78 µM, three biological repeats in triplicates; for MIC: Nakaseomyces glabratus, CBS138, read-out: Minimal inhibitory concentration, Cg CBS 138; as to all read-outs here: key: -: no growth inhibition was observed
Protocol: (§1) The antifungal activity of all the 14 peptides was tested against the following opportunistic human pathogen Candida species and strains: C. albicans strains ATCC 10231, SC 5314 and SZMC 1458, C. auris 0381, C. glabrata CBS 138, C. parapsilosis CBS 604 and C. tropicalis CBS 94.
(§2) All the Candida strains (Table 4) were grown overnight in YPD medium (1% pepton, 1% dextrose, 0.5% yeast extract) at 30 °C in water bath shaker prior to each experiments. The cells were harvested by centrifugation (5 min, 3000× g) washed twice with sterile distilled water and suspended in 5-fold diluted Difco Yeast Nitrogen Base w/o Amino Acids medium (Becton, Dickinson and Company, Sparks, MD, USA) supplemented with 1% dextrose, referred to as YNB medium in the text. Cells were counted in Bürker chamber and diluted to the proper concentration.
(§3) The growth inhibition of the peptides listed in Table 1 was tested in 96-well microtiter plates on Candida strains. The minimal inhibitory concentration (MIC) was determined with the micro-dilution method by adding 5 µL serially two-fold-diluted peptide solution to 95 µL of cell suspension (4 × 10^4 cell/mL) in YNB medium. After 48 h of incubation at 30 °C the optical density of the cultures was measured at 620 nm in SPECTROstar Nano plate reader (BMG LabTech, Offenburg, Germany). Minimal inhibitory concentration was defined as growth inhibition ≥90% compared to 100% growth of the untreated control. The experiments were carried out in three biological repeats always in triplicates.

[1] = tested on: Candida tropicalis CBS 94; experiment: microbe, parasite or virus in culture; assay type: cell-based; settings: micro-dilution, YNB medium, 4 × 10^4 cell/mL, 48 h, 30 °C, OD 620 nm, MIC = growth inhibition ≥90%, peptides 25 to 1.56 µM, fluconazole 200 to 0.78 µM, three biological repeats in triplicates; for MIC: Candida tropicalis, CBS94, read-out: Minimal inhibitory concentration, Ct CBS 94; as to all read-outs here: key: -: no growth inhibition was observed
Protocol: as §1, §2, §3

Candida auris 0381 = experiment: microbe, parasite or virus in culture; assay type: cell-based; settings: micro-dilution, YNB medium, 4 × 10^4 cell/mL, 48 h, 30 °C, OD 620 nm, MIC = growth inhibition ≥90%, peptides 25 to 1.56 µM, fluconazole 200 to 0.78 µM, three biological repeats in triplicates; for MIC: Candidozyma auris, 0381, read-out: Minimal inhibitory concentration, Cau 0381; as to all read-outs here: key: -: no growth inhibition was observed
Protocol: as §1, §2, §3

[2] = tested on: Candida albicans SZMC 1458; experiment: microbe, parasite or virus in culture; assay type: cell-based; settings: micro-dilution, YNB medium, 4 × 10^4 cell/mL, 48 h, 30 °C, OD 620 nm, MIC = growth inhibition ≥90%, peptides 25 to 1.56 µM, fluconazole 200 to 0.78 µM, three biological repeats in triplicates; for MIC: Candida albicans, SZMC1458, read-out: Minimal inhibitory concentration, Ca SZMC 1458; as to all read-outs here: key: -: no growth inhibition was observed
Protocol: as §1, §2, §3

Candida albicans SC 5314 = experiment: microbe, parasite or virus in culture; assay type: cell-based; settings: micro-dilution, YNB medium, 4 × 10^4 cell/mL, 48 h, 30 °C, OD 620 nm, MIC = growth inhibition ≥90%, peptides 25 to 1.56 µM, fluconazole 200 to 0.78 µM, three biological repeats in triplicates; for MIC: Candida albicans, SC5314, read-out: Minimal inhibitory concentration, Ca SC 5314; as to all read-outs here: key: -: no growth inhibition was observed
Protocol: as §1, §2, §3

[3] = tested on: Candida albicans ATCC 10231; experiment: microbe, parasite or virus in culture; assay type: cell-based; settings: micro-dilution, YNB medium, 4 × 10^4 cell/mL, 48 h, 30 °C, OD 620 nm, MIC = growth inhibition ≥90%, peptides 25 to 1.56 µM, fluconazole 200 to 0.78 µM, three biological repeats in triplicates; for MIC: Candida albicans, ATCC10231, read-out: Minimal inhibitory concentration, Ca ATCC 10231; as to all read-outs here: key: -: no growth inhibition was observed
Protocol: as §1, §2, §3

[4] = tested on: Candida parapsilosis CBS 604; experiment: microbe, parasite or virus in culture; assay type: cell-based; settings: micro-dilution, YNB medium, 4 × 10^4 cell/mL, 48 h, 30 °C, OD 620 nm, MIC = growth inhibition ≥90%, peptides 25 to 1.56 µM, fluconazole 200 to 0.78 µM, three biological repeats in triplicates; for MIC: Lodderomyces parapsilosis, CBS604, read-out: Minimal inhibitory concentration, Cp CBS 604; as to all read-outs here: key: -: no growth inhibition was observed
Protocol: as §1, §2, §3

C. auris = settings: for FIC: FIC index = FICA + FICB; for FICA / concentration of drug A for the indicated action: checkerboard, 72 h, 30 °C; for FICA: OD 620 nm
Protocol: Amphotericin B, due to its high toxicity was not included in this assay.
The effects of the different combinations of fluconazole and NCR335C17–33, NCR169C17–38 or NCR169C17–38ox were determined by standard checkerboard titration method. The fluconazole was tested in a concentration range from 6.25 to 75 µM, NCR169C17–38 and NCR169C17–38ox from 0.78 to 12.50 µM, NCR335C17–33 from 1.56 to 25 µM. The initial cell concentration in each well was 4 × 10^4 cell/mL. After the incubation for 72 h at 30 °C, the optical density of the cultures was detected at 620 nm in SPECTROstar Nano plate reader (BMG LabTech, Offenburg, Germany). The inhibitory concentrations were determined for each compound alone and in combinations. The experiments were carried out at least three times. The effect of combinations was evaluated by fractional inhibitory concentration (FIC) index. FIC = FICA + FICB. FICA = (MICA in combination)/(MICA alone); FICB = (MICB in combination)/(MICB alone)

[5] = fluconazole + NCR169C17–38, C. auris
[6] = fluconazole + NCR169C17–38ox, C. auris
[7] = C. auris, drug A fluconazole + drug B NCR169C17–38
[8] = C. auris, drug A fluconazole + drug B NCR335C17–33

Molecule | Minimal inhibitory concentration, Cg CBS 138 (Candida glabrata CBS 138) | Minimal inhibitory concentration, Ct CBS 94 [1] | Minimal inhibitory concentration, Cau 0381 (Candida auris 0381) | Minimal inhibitory concentration, Ca SZMC 1458 [2] | Minimal inhibitory concentration, Ca SC 5314 (Candida albicans SC 5314) | Minimal inhibitory concentration, Ca ATCC 10231 [3] | Minimal inhibitory concentration, Cp CBS 604 [4] | other results
HFSLILSD [NCR335C1–8, NCR335C fragment 1–8] | - | - | - | - | - | - | - | 
HFSLILSDCKTNKDCP [NCR335C1–16, NCR335C fragment 1–16] | - | - | - | - | - | - | - | 
C[C@@H]1[C@H](O)[C@@H](C)/C=C/C=C/C=C/C=C/C=C/C=C/C=C/[C@H](O[C@@H]2O[C@H](C)[C@@H](O)[C@H](N)[C@@H]2O)C[C@@H]2O[C@](O)(C[C@@H](O)C[C@@H](O)[C@H](O)CC[C@@H](O)C[C@@H](O)CC(=O)O[C@H]1C)C[C@H](O)[C@H]2C(=O)O [Amphotericin B, amphotericin B, reference compound] |  |  |  |  |  |  |  | MIC (Candida glabrata CBS 138): 1.56 µM (≈ 1.44 µg/mL); MIC [1]: 6.25 µM (≈ 5.78 µg/mL); MIC (Candida auris 0381): 6.25 µM (≈ 5.78 µg/mL); MIC [2]: 3.12 µM (≈ 2.88 µg/mL); MIC (Candida albicans SC 5314): 3.12 µM (≈ 2.88 µg/mL); MIC [3]: 3.12 µM (≈ 2.88 µg/mL); MIC [4]: 3.12 µM (≈ 2.88 µg/mL)
FWGQNRNIMKHRGQ [NCR335N16–29, NCR335 N-terminal fragment, amino acids 16–29] | - | - | - | - | - | - | - | 
RLNTTFRPLNFKMLR [NCR335N1–15, NCR335 N-terminal fragment, amino acids 1–15] | - | - | - | - | - | - | - | 
OC(Cn1cncn1)(Cn1cncn1)c1ccc(F)cc1F [Fluconazole, fluconazole, reference compound] |  |  |  |  |  |  |  | MIC (Candida glabrata CBS 138): 200 µM (≈ 61.3 µg/mL); MIC [1]: 100 µM (≈ 30.6 µg/mL); MIC (Candida auris 0381): 25 µM (≈ 7.66 µg/mL); MIC [2]: 1.56 µM (≈ 0.478 µg/mL); MIC (Candida albicans SC 5314): 12.5 µM (≈ 3.83 µg/mL); MIC [3]: 200 µM (≈ 61.3 µg/mL); MIC [4]: 6.25 µM (≈ 1.91 µg/mL); FIC (C. auris; [5]): 0.625; FIC (C. auris; [6]): 0.5; FIC (C. auris; fluconazole + NCR335C17–33, C. auris, * fictitious value, could be lower): ≤ 1.125 *; FICA (C. auris; [7]): 0.5; FICA (C. auris; [8]): 1; concentration of drug A for the indicated action (C. auris; [7]): 12.50 µM; concentration of drug A for the indicated action (C. auris; C. auris, drug A fluconazole + drug B NCR169C17–38ox): 6.25 µM; concentration of drug A for the indicated action (C. auris; [8]): 25 µM; Action (C. auris; [5]): Additive; Action (C. auris; [6]): Synergism; reduction of MIC in the synergistic combination (C. auris; fluconazole + NCR169C17–38ox, C. auris, compared with single use): 4 ×; Action (C. auris; fluconazole + NCR335C17–33, C. auris): Indifferent
KLRRANVRCRK [NCR335C17–27, NCR335C fragment 17–27] | - | - | - | - | - | - | - | 
CKTNKDCP [NCR335C9–16, NCR335C fragment 9–16] | - | - | - | - | - | - | - | 
